Data reported in US20170128489A1 (priority 2014, published 2017).

SMILES: NC(=O)CN(CC(N)=O)C1CCCCCCC1 [CO-IDAm, Cyclooctylimidodiacetamide]
- melting point: 152 to 154 °C
